The target in one assay is T1, 5-HT4 receptor (Cavia porcellus, UniProt O70528).
T1 construct: tissue or cells expressing the receptor of interest were suspended in incubation buffer; from tissue; host or cells: guinea-pig tissue (which tissue is not visible)
Description: Radio-ligand binding assay 5-HT4. Also on record: species or system Guinea pig. As to the method: (§1) Determination of binding affinities for various 5-HT receptors was performed by radio-ligand binding assays. Briefly, tissue or cells expressing the receptor of interest were suspended in incubation buffer and radio-ligands and 10 μM N-(2-chloro-3,4-dimethoxybenzylidene-amino)guanidine were added. After incubation, separation of bound and free radio-ligand was done by multiple washings with buffer.
(§2) The results were presented as the percent inhibition of specific binding. The IC50 values were determined by a non-linear least square regression analysis using MathIQ™ (ID Business Solution Ltd., UK). The inhibition constants (Ki) were calculated using the equation of Cheng and Prusoff (Cheng Y, Prusoff W H, Biochem. Pharmacol. 22:3099-3108, 1973) using the observed IC50 of the tested compound, the concentration of radioligand employed in the assay and the historical values for the KD of the ligand.

Another assay has as its target 5-HT5A receptor (Homo sapiens, UniProt P47898). In words: Radio-ligand binding assay 5-HT5A. As to conditions: 10 μM compound; [3H] LSD 1 nM; human rec. HEK293 cells. How it is done: as §1, §2
The next assay addresses 5-HT7 receptor (Homo sapiens, UniProt P34969). Description: Radio-ligand binding assay 5-HT7. The following applies: 10 μM compound; [3H] LSD 2.5 nM; human rec. CHO cells. How it is done:
as §1, §2

A further assay addresses T2, 5-HT3 receptor (Homo sapiens, UniProt P46098).
T2 sequence (P46098 24-478): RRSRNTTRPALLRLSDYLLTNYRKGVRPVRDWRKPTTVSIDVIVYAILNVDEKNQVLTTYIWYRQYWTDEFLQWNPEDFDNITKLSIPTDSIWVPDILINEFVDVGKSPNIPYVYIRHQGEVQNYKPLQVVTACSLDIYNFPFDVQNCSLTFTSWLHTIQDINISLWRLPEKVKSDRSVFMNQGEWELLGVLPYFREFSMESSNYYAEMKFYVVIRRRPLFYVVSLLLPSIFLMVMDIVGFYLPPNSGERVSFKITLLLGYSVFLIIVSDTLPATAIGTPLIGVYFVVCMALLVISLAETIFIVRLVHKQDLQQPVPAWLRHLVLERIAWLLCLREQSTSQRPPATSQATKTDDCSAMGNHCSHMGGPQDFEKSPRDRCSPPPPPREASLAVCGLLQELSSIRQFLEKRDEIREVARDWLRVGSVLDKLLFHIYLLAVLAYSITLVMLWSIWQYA
Description: Radio-ligand binding assay 5-HT3. As to conditions: 10 μM compound; [3H] GR65630 35 nM; human rec. HEK293 cells. How it is done:
as §1, §2

For a further assay, the system named is formalin-induced pain. Description: Formalin test, inflammatory pain model. It counts as in vivo, rat. The following applies: 30 mg/kg orally 60 min before formalin. The source says:
Inflammatory pain is associated with tissue damage and the resulting inflammatory process is related to conditions such as arthritis and many autoimmune disease states. The formalin test in rats is a widely used tool when studying inflammatory pain in animals (Dubuisson, D., and Dennis, S. G. (1977), Pain 4:161-174; Wheeler-Aceto, H., et al. (1990), Pain 40:229-238). This model allows the study of two different types of pain that appears in two separate phases: phase 1 which is a direct stimulation of the nerve by the formalin and thus resembles the acute pain, followed by phase 2 which is an inflammatory-reaction induced pain similar to the pain in, e.g., arthritis. […]
In accordance with the literature (Sufka K J, et al., Eur J Pain (1998), 2(4):351-8; Maione S, et al., Br. J. Pharmacol. 2007; 150:766-781), nociceptive response was monitored in consecutive 5-min periods for 60 min following formalin injection. In particular, nociceptive responses were recorded by measuring the cumulative time of lifting, licking, shaking and flinching of the injected paw per unit time (5 minutes). The nociceptive response was measured both as every 5 minutes and as total time of the first phase (0-15 min) and the second phase (15-60 min). […]

T1 sequence (O70528 whole entry): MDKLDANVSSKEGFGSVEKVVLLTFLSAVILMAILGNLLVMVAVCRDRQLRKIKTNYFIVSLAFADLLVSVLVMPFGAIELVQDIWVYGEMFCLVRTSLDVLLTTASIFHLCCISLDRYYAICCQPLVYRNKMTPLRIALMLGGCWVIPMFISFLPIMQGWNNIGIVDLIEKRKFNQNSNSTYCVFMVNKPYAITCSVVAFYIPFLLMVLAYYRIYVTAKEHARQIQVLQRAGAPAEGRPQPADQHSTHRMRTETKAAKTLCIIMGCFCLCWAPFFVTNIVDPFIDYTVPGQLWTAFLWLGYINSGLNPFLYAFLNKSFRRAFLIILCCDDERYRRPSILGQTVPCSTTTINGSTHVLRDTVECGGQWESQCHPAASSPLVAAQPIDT
Sequence of 5-HT5A receptor (P47898 whole entry): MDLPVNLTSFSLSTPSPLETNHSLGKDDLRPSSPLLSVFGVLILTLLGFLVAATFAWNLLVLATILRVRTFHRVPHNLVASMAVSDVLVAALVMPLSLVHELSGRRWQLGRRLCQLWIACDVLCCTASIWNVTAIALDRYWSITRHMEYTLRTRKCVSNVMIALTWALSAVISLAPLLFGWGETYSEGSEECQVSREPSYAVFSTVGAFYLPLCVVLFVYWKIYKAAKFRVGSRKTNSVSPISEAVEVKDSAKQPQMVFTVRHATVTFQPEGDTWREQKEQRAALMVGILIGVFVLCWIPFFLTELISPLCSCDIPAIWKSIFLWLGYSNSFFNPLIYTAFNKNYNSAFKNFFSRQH
Sequence of 5-HT7 receptor (P34969 whole entry): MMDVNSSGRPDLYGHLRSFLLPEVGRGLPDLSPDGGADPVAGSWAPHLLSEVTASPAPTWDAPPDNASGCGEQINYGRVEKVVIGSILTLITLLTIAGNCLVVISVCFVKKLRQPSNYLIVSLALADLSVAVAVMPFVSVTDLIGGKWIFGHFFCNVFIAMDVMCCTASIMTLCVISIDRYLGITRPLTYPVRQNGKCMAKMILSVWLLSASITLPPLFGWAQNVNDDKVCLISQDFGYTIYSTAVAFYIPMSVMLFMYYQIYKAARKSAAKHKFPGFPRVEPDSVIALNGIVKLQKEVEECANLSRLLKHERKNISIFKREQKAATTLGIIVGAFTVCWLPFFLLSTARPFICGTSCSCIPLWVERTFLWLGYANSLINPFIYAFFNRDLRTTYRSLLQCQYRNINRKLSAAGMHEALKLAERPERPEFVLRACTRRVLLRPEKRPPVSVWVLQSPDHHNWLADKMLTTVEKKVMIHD

As for `COc1ccc(C=NNC(=N)N)c(Cl)c1OC` [N-(2-chloro-3,4-dimethoxybenzylideneamino)guanidine], the inhibition at 10 µM is 99% on 5-HT4 receptor (10 μM compound, [3H] GR113808 0.2 nM, guinea pig striata); 54% on 5-HT5A receptor; 53% on 5-HT7 receptor; 3.3% at 5-HT3 receptor. On 5-HT4 receptor (10 different concentrations, Cheng-Prusoff, FIG. 1), this compound came in with a Ki of 0.276 µM. The “nociceptive response, first phase (0-15 min)” value with formalin-induced pain was “without significantly influencing”. Also, the “nociceptive response, phase 2 (15-60 min), inflammatory pain” value with formalin-induced pain (FIG. 6) is recorded as “significantly reduced the inflammatory pain response”.

The record behind these values is patent US20120190751A1, “COMPOUNDS FOR TREATMENTS OF INFLAMMATION” (ANA-MAR AB, priority 2009, published 2012).
